In ChEMBL document CHEMBL1800026 (Bioorg Med Chem, 2010):
Active and inactive are the calls of the source. No cut-off for these calls is given here.

Experiments:
[1] = Selectivity ratio of Ki for beta1-adrenergic receptor in Sprague-Dawley rat cortical membrane to Ki for human beta2-adrenergic receptor
[2] = target: Beta-2 adrenergic receptor (Rattus norvegicus) (UniProt P10608); assay: Agonist activity beta2-adrenergic receptor in rat ventricular myocytes assessed as cell contraction following electrical stimulation by optical edge tracking method using photodiode array in presence of receptor agonist zinterol; format: functional, cell-based
Sequence of Beta-2 adrenergic receptor (Rattus norvegicus) (P10608 whole entry, looked up): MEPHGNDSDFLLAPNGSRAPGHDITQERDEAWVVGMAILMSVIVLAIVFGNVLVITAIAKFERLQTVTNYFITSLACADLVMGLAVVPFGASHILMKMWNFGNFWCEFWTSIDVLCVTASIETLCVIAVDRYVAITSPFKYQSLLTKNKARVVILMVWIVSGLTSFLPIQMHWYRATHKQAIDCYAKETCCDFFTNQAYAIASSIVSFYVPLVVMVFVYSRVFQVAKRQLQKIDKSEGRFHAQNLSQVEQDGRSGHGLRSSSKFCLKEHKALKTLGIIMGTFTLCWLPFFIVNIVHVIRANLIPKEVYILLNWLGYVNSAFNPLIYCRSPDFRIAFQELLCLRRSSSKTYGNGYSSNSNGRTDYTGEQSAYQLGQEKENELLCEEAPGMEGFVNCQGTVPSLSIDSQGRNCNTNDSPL

[3] = target: Beta-2 adrenergic receptor (Rattus norvegicus) (UniProt P10608); assay: Agonist activity beta2-adrenergic receptor in rat ventricular myocytes assessed as cell contraction following electrical stimulation by optical edge tracking method using photodiode array in presence of receptor antagonist ICI 118551; format: functional, cell-based
[4] = target: T1, Beta-2 adrenergic receptor (Homo sapiens, UniProt P07550); assay: Displacement of [3H]CGP-12177 from human beta2-adrenergic receptor expressed in HEK 293 cells; format: cell-based, HEK293
T1 sequence (P07550 whole entry): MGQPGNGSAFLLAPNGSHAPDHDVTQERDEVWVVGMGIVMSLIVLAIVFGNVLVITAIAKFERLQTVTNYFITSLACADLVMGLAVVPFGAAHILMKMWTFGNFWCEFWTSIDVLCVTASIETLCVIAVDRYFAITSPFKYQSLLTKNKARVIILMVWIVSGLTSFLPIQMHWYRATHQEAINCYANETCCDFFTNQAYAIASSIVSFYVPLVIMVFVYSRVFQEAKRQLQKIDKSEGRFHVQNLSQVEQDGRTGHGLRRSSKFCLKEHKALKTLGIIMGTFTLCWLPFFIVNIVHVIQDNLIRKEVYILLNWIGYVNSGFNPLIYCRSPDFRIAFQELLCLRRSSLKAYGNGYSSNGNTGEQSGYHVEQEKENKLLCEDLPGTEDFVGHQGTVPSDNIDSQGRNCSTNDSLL

[5] = target: Beta-1 adrenergic receptor (Rattus norvegicus, UniProt P18090); assay: Displacement of [3H]CGP-12177 from beta1-adrenergic receptor in Sprague-Dawley rat cortical membrane after 2 hrs
Sequence of Beta-1 adrenergic receptor (Rattus norvegicus, UniProt P18090) (P18090 whole entry): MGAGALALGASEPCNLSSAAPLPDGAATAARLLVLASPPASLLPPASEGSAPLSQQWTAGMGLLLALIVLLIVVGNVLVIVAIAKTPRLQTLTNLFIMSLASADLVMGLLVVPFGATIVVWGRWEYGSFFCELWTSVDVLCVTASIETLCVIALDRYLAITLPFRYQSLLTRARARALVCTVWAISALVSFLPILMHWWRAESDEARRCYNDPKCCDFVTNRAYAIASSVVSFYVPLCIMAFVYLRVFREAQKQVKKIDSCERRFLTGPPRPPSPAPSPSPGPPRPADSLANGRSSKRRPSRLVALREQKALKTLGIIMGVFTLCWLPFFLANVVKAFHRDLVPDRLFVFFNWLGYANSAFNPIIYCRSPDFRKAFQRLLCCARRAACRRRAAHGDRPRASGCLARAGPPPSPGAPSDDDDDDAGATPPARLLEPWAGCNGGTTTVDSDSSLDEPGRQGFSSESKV

Homo sapiens = organism: Homo sapiens; assay: Selectivity ratio of Ki for human beta1-adrenergic receptor to Ki human beta2-adrenergic receptor
[6] = target: T1, Beta-2 adrenergic receptor; assay: Displacement of [125I]-CYP from human beta2-adrenergic receptor expressed in COS-7 cells by gamma counting; format: cell-based
[7] = target: Beta-1 adrenergic receptor (Homo sapiens, UniProt P08588); assay: Displacement of [125I]-CYP from human beta1-adrenergic receptor expressed in COS-7 cells by gamma counting; format: cell-based
Sequence of Beta-1 adrenergic receptor (Homo sapiens, UniProt P08588) (P08588 whole entry): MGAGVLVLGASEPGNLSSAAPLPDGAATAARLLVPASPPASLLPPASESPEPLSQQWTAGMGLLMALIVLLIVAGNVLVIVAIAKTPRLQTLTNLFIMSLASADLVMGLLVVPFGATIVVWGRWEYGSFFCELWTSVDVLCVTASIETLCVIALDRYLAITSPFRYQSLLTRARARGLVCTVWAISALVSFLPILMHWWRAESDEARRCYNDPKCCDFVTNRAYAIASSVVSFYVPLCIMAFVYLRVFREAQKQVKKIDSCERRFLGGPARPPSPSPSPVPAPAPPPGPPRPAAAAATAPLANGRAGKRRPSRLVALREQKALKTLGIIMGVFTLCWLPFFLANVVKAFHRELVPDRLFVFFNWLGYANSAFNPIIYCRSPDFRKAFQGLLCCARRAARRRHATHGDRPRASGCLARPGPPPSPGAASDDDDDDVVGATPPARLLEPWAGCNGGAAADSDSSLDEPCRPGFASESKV

## CC[C@H](Cc1ccc(O)cc1)NC[C@H](O)c1cc(O)cc(O)c1
[1]
  Ratio Ki: 334
[2]
  Activity: Active
[3]
  Activity: inactive
[4]
  Ki: 1.27 µM
[5]
  Ki: 424 µM

## C[C@H](Cc1ccc2ccccc2c1)NC[C@H](O)c1cc(O)cc(O)c1
[5]
  Ki: 16.6 µM

## OCc1cc(C(O)CNCCCCCCCCCCCc2ccccc2)ccc1O (stereo not given)
Homo sapiens
  Ratio Ki: 10
[6]
  Ki: 0.22 µM
[7]
  Ki: 2.3 µM

## C[C@@H](Cc1ccc2ccccc2c1)NC[C@H](O)c1cc(O)cc(O)c1
[5]
  Ki: 27.1 µM

## COc1ccc(C[C@H](C)NC[C@H](O)c2cc(O)cc(O)c2)c2ccccc12 (racemic)
[5]
  Ki: 14.8 µM

## COc1ccc(C[C@@H](C)NC[C@H](O)c2cc(O)cc(O)c2)c2ccccc12
[5]
  Ki: 161 µM

## CC[C@@H](Cc1ccc(O)cc1)NC[C@H](O)c1cc(O)cc(O)c1 (racemic)
[1]
  Ratio Ki: 20
[4]
  Ki: 5.76 µM
[5]
  Ki: 117 µM
